Results from article PMC9224512, “New Insights into the Determinants of Specificity in Human Type I Arginase: Generation of a Mutant That Is Only Active with Agmatine as Substrate” (International Journal of Molecular Sciences, 2022).
Positions count from the first letter of the chain named. Values joined by “and” are separate entries in the source; they are usually repeats but may differ in a detail not shown here. Identical values can stand only once.

How the values were obtained:
[1] = biological target: T1, type I human arginase V182E (Homo sapiens, UniProt P05089, V182E); assay: Kinetic and inhibition studies, V182E mutant; type: biochemical; details: substrate arginine
T1 sequence (P05089 1-322 V182E): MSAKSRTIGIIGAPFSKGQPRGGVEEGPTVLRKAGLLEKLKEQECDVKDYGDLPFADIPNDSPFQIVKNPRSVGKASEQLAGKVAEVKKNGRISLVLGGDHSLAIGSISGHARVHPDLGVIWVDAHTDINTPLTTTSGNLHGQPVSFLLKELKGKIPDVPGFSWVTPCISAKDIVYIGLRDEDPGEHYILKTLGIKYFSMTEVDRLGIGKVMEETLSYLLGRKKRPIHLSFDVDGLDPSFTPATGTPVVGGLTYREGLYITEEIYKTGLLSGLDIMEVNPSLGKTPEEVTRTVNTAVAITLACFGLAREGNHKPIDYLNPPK
Method: (§1) Bacterial cultures were grown with shaking at 37 °C in Luria Broth media, in the presence of ampicillin (100 μg/mL). The wild-type and mutant human liver arginase cDNAs were directionally cloned into the pBluescript II KS(+) expression vector and then expressed in E. coli JM109, following induction with 1 mM isopropyl β-D-thiogalactopyranoside. The bacterial cells were disrupted by sonication on ice (5 × 30 s pulses), centrifuged for 20 min at 12,000× g, and the obtained supernatant was precipitated with ammonium sulfate (60% saturation). The pellet, collected by centrifugation at 12,000× g for 10 min, was re-suspended in buffer 5 mM Tris–HCl (pH 7.5) containing 2 mM MnCl2 and dialyzed for 6 h at 4 °C against the same buffer. After incubation with 5 mM MnCl2 for 10 min at 60 °C, the enzyme variants were purified as previously described. The purity of the enzymes was evaluated by SDS–PAGE stained by Coomassie blue and immunodetection using an anti- rat arginase I antibody.
(§2) The single, double, triple, and chimera variants of human arginase type I were obtained by PCR, using the QuickChange site-directed mutagenesis kit (Stratagene, La Jolla, CA, USA); the plasmid pBluescript II KS(+) containing the human liver arginase cDNA was used as template. To obtain the chimeric species of human arginase type I, serial mutations were made in each loop to be modified, using as template DNA the wild-type arginase gene or the previous done mutation, subcloned in the plasmid pBluescript II KS (+). Specifically, the residues present in the arginase structure were replaced by those corresponding to the agmatinase sequence of E. coli.
(§3) All assays were initiated by adding the enzyme to a previously equilibrated buffer with the substrate in solution (the concentrations of used substrates were between 0.2–3 fold the Km). Urea was determined by a colorimetric method with α-isonitrosopropiophenone. The protein concentrations were determined by the Bradford’s method, with bovine serum albumin as standard. Initial velocity and enzymatic inhibition experiments were performed in duplicate and repeated three times. The inhibitory patterns were initially determined by double reciprocal plots and re-plots of intercepts and slopes versus inhibitor concentrations. […] Velocities are expressed as μmol of urea/10 min.

[2] = biological target: T2, human arginase type I S137C-N139D (Homo sapiens, UniProt P05089, N139D/S137C); assay: Kinetic and inhibition studies, S137C-N139D mutant; type: biochemical
T2 construct: made in house; host or cells: E. coli JM109
T2 sequence (P05089 1-322 S137C/N139D): T1 sequence (P05089 1-322 V182E) with S137C, N139D, E182V
Method: as §1, §2
All assays were initiated by adding the enzyme to a previously equilibrated buffer with the substrate in solution (the concentrations of used substrates were between 0.2–3 fold the Km). Urea was determined by a colorimetric method with α-isonitrosopropiophenone. The protein concentrations were determined by the Bradford’s method, with bovine serum albumin as standard. […]

[3] = biological target: single, double and triple mutants (N130D, S137C, N139D) of human arginase type I; assay: Kinetic properties stated for all loop A mutants together; type: biochemical; details: all mutants of Table 1; substrate arginine; read-out: Ki for competitive inhibition by the ornithine product
Method: as §1
The single, double, triple, and chimera variants of human arginase type I were obtained by PCR, using the QuickChange site-directed mutagenesis kit (Stratagene, La Jolla, CA, USA); the plasmid pBluescript II KS(+) containing the human liver arginase cDNA was used as template. […]

[4] = biological target: T3, WT-arginase (human arginase type I) (Homo sapiens, UniProt P05089); assay: Kinetic and inhibition studies, wild-type human arginase type I; type: biochemical
T3 construct: made in house; host or cells: E. coli JM109
T3 sequence (P05089 1-322): T1 sequence (P05089 1-322 V182E) with E182V
Method: as §1, §3

[5] = biological target: T4, type I human arginase D181T (Homo sapiens, UniProt P05089, D181T); assay: Kinetic and inhibition studies, D181T mutant; type: biochemical; details: substrate arginine
T4 sequence (P05089 1-322 D181T): T1 sequence (P05089 1-322 V182E) with D181T, E182V
Method: as §1, §2, §3

[6] = tested on: human arginase D183N; design: method as in PMID 19093830; details: substrate arginine; cited from earlier work
[7] = tested on: arginase N130A; design: method as in PMID 19093830; details: substrate arginine; cited from earlier work
[8] = tested on: arginase N130Y; design: method as in PMID 19093830; details: substrate arginine; cited from earlier work
[9] = substrate = labelled compound, pH 9.5, 2 mM Mn2+

In the case of `NCCC[C@H](N)C(=O)O` [Ornithine, L-ornithine], the Inhibition type [1] is reported as “Competitive”, the Kis [1] is reported as 3.2 ± 0.2 mM and the Ki ([2]; read-out: Ki^orn) is reported as 8.4 mM. For the same compound, the Ki [3] was about 7 mM, the “Inhibition type” value ([4]; substrate arginine) was “Competitive” and the “Kis (Ki)” value ([4]; substrate arginine, pH 9.5) was 2 ± 0.5 mM. For the same compound, the Inhibition type [5] was “Competitive” and the Kis [5] was 1.6 ± 0.3 mM.

For `N=C(N)NCCC[C@H](N)C(=O)O` [Arginine, L-arginine], the kcat [1] is given as 187 ± 10 s⁻¹, the Km ([1]; pH 9.5, 2 mM Mn2+) is given as 2.4 ± 0.2 mM and the “increase in Km” value [6] is given as 27 fold. The reduction in kcat [6] was 12%, the kcat ([2]; substrate = labelled compound) was 83 s⁻¹ and the Km [2, 9] was 10.8 mM. For the same compound, the “increase of Km for arginine” value [7] was 50 fold, the reduction of kcat [7] was 37% and the decrease in kcat [8] was “approximately 20 times”. The Km [4, 9] was 1.5 mM, the kcat ([4]; substrate = labelled compound, pH 9.5, 2 mM Mn2+, n/a = no activity with the substrate) was 190 s⁻¹ and 190 ± 10 s⁻¹ and the kcat [5] was 191 ± 8 s⁻¹. It also gave a Km ([5]; pH 9.5, 2 mM Mn2+) of 5.3 ± 0.8 mM.
